Data reported in ChEMBL document CHEMBL5728921, “Pyridylpyridone compounds” (2022).
pIC50: −log10 of the molar value.

Target: Phosphatidylinositol 3-kinase catalytic subunit type 3 (Homo sapiens, UniProt Q8NEB9)
Test: Biochemical Assay: Dilution series of compounds of the invention were prepared in DMSO at 100 times the final assay concentration (n1=n0/3 in 10 points). The compounds were further diluted to 4 times the assay concentration in assay buffer (Life technologies buffer Q, PV5125, diluted 5 times supplemented with 2 mM DTT and 2 mM MnCl2). 2.5 μl of the diluted compounds were added to a 384 well assay plate followed by 2.5 μl of 16.5 nM Vps34 enzyme (Life technologies, PV5126). Enzyme and compounds were pre-incubated at rt for 15 min. Then 5 μl of substrate mix containing 20 μM ATP (Life technologies, PV3227) and 200 μM PI:PS substrate (Life technologies, PV5122) in assay buffer was added to the wells containing compound and enzyme. Mixing was performed by pipetting several times. The reaction was incubated at room temperature for 1 h. Then 5 μl stop-detection mix, prepared as described in the Adapta kinase assay kit instructions (Life technologies, PV5099) containing Adapta Eu-anti-ADP antibody (2.3 nM), Alexa Fluor 647 ADP tracer (9 nM) and EDTA (30 mM) in TR-FRET buffer, was added to quench the reaction. Mixing was performed by pipetting several times. The assay plate was then incubated at room temperature for 30 min and read with Artemis micro plate reader. Percent inhibition of the compounds as compared to DMSO treated control samples was calculated.

Chain of Phosphatidylinositol 3-kinase catalytic subunit type 3 (Q8NEB9 whole entry): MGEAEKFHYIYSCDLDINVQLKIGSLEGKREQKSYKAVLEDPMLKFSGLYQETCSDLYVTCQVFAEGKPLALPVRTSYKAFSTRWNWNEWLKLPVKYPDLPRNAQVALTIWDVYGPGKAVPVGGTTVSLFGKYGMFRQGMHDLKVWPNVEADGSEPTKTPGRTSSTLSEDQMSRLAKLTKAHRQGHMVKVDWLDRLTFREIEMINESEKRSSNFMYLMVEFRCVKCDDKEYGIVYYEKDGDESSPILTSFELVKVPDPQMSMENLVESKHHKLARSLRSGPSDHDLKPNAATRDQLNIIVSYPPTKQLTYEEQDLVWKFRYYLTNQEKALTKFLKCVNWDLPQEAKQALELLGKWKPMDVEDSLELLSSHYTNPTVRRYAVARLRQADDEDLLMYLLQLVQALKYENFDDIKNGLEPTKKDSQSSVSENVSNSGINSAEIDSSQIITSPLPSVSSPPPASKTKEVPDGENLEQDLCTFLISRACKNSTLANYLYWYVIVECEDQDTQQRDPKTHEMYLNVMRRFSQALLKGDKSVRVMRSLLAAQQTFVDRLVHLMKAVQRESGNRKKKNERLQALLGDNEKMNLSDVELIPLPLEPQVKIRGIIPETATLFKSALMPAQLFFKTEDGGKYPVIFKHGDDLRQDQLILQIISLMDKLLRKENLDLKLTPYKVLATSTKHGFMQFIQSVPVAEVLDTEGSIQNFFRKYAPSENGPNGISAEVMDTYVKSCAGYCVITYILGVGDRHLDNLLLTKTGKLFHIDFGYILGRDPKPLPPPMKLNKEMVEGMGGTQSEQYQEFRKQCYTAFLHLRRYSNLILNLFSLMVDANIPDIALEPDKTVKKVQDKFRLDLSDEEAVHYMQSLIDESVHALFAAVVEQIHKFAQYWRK

pIC50: > 8.30
SMILES: CC(=O)Nc1cc(-c2cc(-c3ccccc3Cl)[nH]c(=O)c2)ccn1
